Experimental data published in patent publication US6908761B1, “Transcriptional activators” (Otsuka Pharmaceutical Co., Ltd., priority 1999, dated 2005).
One block for each compound: values may come before it.

How the values were obtained:
Type in all cases: cell-based, Human
[1] = system: ARE sequence of the glutathione S-transferase Ya gene (SEQ ID NO: 5); experiment: Luciferase reporter assay, 3xARE/RBGP-Luc (ARE of SEQ ID NO: 5) in HepG2; details: HepG2, FIG. 4
Text: (§1) Then, 3 copies (Mol. Cell. Biol., 14, 700-712 (1994)) of various oligonucleotides (32-mers) containing the MARE sequences of SEQ ID NO: 1 through 7, comparative or control MARE sequences (SEQ ID NO: 1-4, 6 and 7), and an ARE sequence (SEQ ID NO: 5) were respectively inserted into the XhoI site of pUC118 vector with a modified poly-linker sequence. Further, the portion containing the 3 repeats of MARE sequence was excised at KpnI/BamHI site and inserted into the KpnI/BamHI site of pRBGP3. As an example of the above 32mer sequence, the one containing MARE of SEQ ID NO: 2 is shown in SEQ ID NO: 20. Here, tcgag represents the XhoI site.
(§2) Thus obtained were 3xMARE/RBGP-Luc and 3xARE/RBGP-Luc plasmids containing 3 repeats of 32 oligonucleotide sequences containing the 13 oligonucleotides shown in SEQ ID NO: 1 through 7 (MARE sequences, ARE sequences, and the corresponding comparative and control sequences). SEQ ID NO: 21 is an example of the sequence contained in the resulting 3xMARE/RBGP-Luc using SEQ ID NO: 2 as MARE. The obtained recombinant expression vectors were used for subsequent transfections.
(§3) Transfections were carried out using SUPERFECT Transfection Reagent (Qiagen) according to the protocol accompanying the reagent. Human hepatocellular calcinoma cell line HepG2 was subcultured on a 35 mm plate and, after 24 hours, the transfection was carried out. Thus, a transfection solution containing 100 μl of a vector solution containing 0.25 μg of the above plasmid, 100 μl of SUPERFECT transfection reagent, and 600 μl of DMEM serum-free medium were added to a PBS-washed cell plate. After 2 hours of incubation at 37° C., the medium was changed to 10% FCS-supplemented DMEM. After 2 hours, stimulating reagents containing various heavy metal compounds inclusive of auranofin; Ridaura™, product of Sigma; 2,3,4,6-tetra-O-acetyl-1-thio-β-D-glucopyranosato-S) (triethylphosphine)gold were added and the culture was continued. The luciferase activity in the cells was assayed 15-18 hours later.
(§4) The assay of luciferase activity was carried out using Dual-Luciferase Reporter Assay System (product of Promega) according to the manufacture's protocol.
(§5) To the culture plate was added 100 μl of the cytolytic buffer included in the […] kit to lyse the cells, and using a bench-top centrifuge, the lysate was centrifuged at 15,000 rpm for 5 seconds. The supernatant, 20 μl, of the lysate was mixed with 100 μl of the attached reagent LARII and the first chemiluminescence was measured with a luminometer. Then, 100 μl of the stopper (Stop & Glo Reagent) was added and the second chemniluminescence was measured.
(§6) The ratio of the first and second chemiluminescences was determined to calculate luciferase activity.
The results are shown in FIG. 4 similar to FIG. 1 (the abbreviations of reagents added are the same as above; each luciferase activity ratio was calculated with the control value found by culture of the vector in the absence of the test reagent being taken as 1).

[2] = system: MARE sequence of SEQ ID NO: 4; experiment: Luciferase reporter assay, 3xMARE/RBGP-Luc (MARE of SEQ ID NO: 4) in HepG2; details: 5 μM auranofin vs absence, 18 hours, HepG2, FIG. 3
Text: as §1, with “site. […]” for “site.”
as §5
(§7) The ratio of the first and second chemiluminescences was determined to calculate luciferase activity. […]

[3] = system: MARE sequence of SEQ ID NO: 2; experiment: Luciferase reporter assay, 3xMARE/RBGP-Luc (MARE of SEQ ID NO: 2) transfected into HepG2
Text: (a) Construction of a Recombinant Vector
As the basal skeleton of the recombinant vector, pGL2-Basic (product of Promega) was used. This vector is a luciferse expression vector.
The SV40 promoter of the above pGL2-Basic was substituted with oligonucleotides (SEQ ID NO: 8 and NO: 9, 41-mer each) containing the TATA sequence of rabbit β-globin promoter at Bgl II/Hind III site to construct pRBGP3 (Nature, 367, 568-572 (1994)).
as §1, §2, §3, §4, §5, §6
The recombinant expression vector (reporter plasmid) ligated with the MARE sequence of SEQ ID NO: 2 as constructed under (a) above, namely 3xMARE/RBGP-Luc, was used. Stimulating reagents containing various heavy metal compounds, namely 100 μM each of manganese chloride (MnCl2), cobalt chloride (CoCl2), nickel chloride (NiCl2), copper sulfate (CuSO4), zinc sulfate (ZnSO4), cadmium sulfate (CdSO4), mercury chloride (HgCl2) and sodium tetrachloroaurate(III) (Na(AuCl4)) and 5 μM of auranofin, were respectively added and the cells were cultured by the above procedure (b) for 18 hours. Then, luciferase activity was measured by the procedure described under (c) above. […]

[4] = system: 5xSRE (c-fos) serum response element; experiment: Luciferase reporter assay, positive control 5xSRE (c-fos) in HepG2; details: 5 μM auranofin vs absence, 18 hours, HepG2, FIG. 3
Protocol: as §3, with “After 2 hours, stimulating reagents containing various heavy metal compounds inclusive of auranofin; Ridaura™, product of Sigma; 2,3,4,6-tetra-O-acetyl-1-thio-β-D-glucopyranosato-S) (triethylphosphine)gold were added and the culture was continued. The luciferase activity in the cells was assayed 15-18 hours later.” left out
as §5, §7
(§8) Each of the above vectors was cultured by the above procedure (b) for 18 hours in the presence of 5 μM auranofin or in the absence thereof and the luciferase activity was measured by the above procedure (c). […]

[5] = system: AP-1 (activator protein-1) element of SEQ ID NO: 7; experiment: Luciferase reporter assay, AP-1 element of SEQ ID NO: 7 in HepG2; details: 5 μM auranofin vs absence, 18 hours, HepG2, FIG. 3
Text: as §1, with “site. […]” for “site.”
as §5, §7

[6] = system: MARE sequence of SEQ ID NO: 3; experiment: Luciferase reporter assay, 3xMARE/RBGP-Luc (MARE of SEQ ID NO: 3) in HepG2; details: 5 μM auranofin vs absence, 18 hours, HepG2, FIG. 3
Text: as §1, with “site. […]” for “site.”
as §5, §7

[7] = system: MARE sequence of SEQ ID NO: 1; experiment: Luciferase reporter assay, 3xMARE/RBGP-Luc (MARE of SEQ ID NO: 1) in HepG2; details: 5 μM auranofin vs absence, 18 hours, HepG2, FIG. 3
Text: as §1, with “site. […]” for “site.”
as §5, §7

[8] = system: control MARE of SEQ ID No: 6; experiment: Luciferase reporter assay, control MARE of SEQ ID NO: 6 in HepG2; details: 5 μM auranofin vs absence, 18 hours, HepG2, FIG. 3
Text: as §1, with “site. […]” for “site.”
as §5, §7

[9] = system: 5xkB (IL2R-a) kB element; experiment: Luciferase reporter assay, positive control 5xkB (IL2R-a) in HepG2; details: 5 μM auranofin vs absence, 18 hours, HepG2, FIG. 3
Protocol: as §3, with “After 2 hours, stimulating reagents containing various heavy metal compounds inclusive of auranofin; Ridaura™, product of Sigma; 2,3,4,6-tetra-O-acetyl-1-thio-β-D-glucopyranosato-S) (triethylphosphine)gold were added and the culture was continued. The luciferase activity in the cells was assayed 15-18 hours later.” left out
as §5, §7, §8

[10] = 100 μM heavy metal compound, 18 hours, HepG2, control taken as 1, FIG. 1

activity ratio (luciferase activity ratio, control taken as 1) ([1]; 500 μM): 21.7±15.4
Structure (SMILES): OC[C@H]1O[C@H]([S-])[C@H](O)[C@@H](O)[C@@H]1O.[Au+] [AuTG, (1-thio-D-glucopyranosato)gold]

Structure (SMILES): O=C([O-])CC([S-])C(=O)[O-].[Au+].[Na+].[Na+] (centres unmarked) [AuTM, sodium aurothiomalate]
activity ratio (luciferase activity ratio, control taken as 1) ([1]; 100 μM): 8.1±0.4

Structure (SMILES): CC[PH](CC)(CC)[Au][S][C@@H]1O[C@H](COC(C)=O)[C@@H](OC(C)=O)[C@H](OC(C)=O)[C@H]1OC(C)=O [auranofin, (2,3,4,6-tetra-O-acetyl-1-thio-β-D-glucopyranosato-S)(triethylphosphine)gold]
transcription activity ratio (luciferase activity ratio) [2]: 112.9 | activity ratio (luciferase activity ratio, control taken as 1) ([1]; 5 μM): 102.9±53.4 | activity relative to that of tBHQ ([1]; AUR 5 μM vs tBHQ 60 μM): about 30 times | transcription activity ratio (luciferase activity ratio) ([3]; 5 μM auranofin vs absence, 18 hours, HepG2, FIG. 3, study (3)): 158.7 | luciferase activity in multiples of untreated control (Fold Activation) ([3]; 5 μM auranofin, 18 hours, HepG2, control taken as 1, FIG. 1, study (1)): 142.4 times | dose dependence of MARE activation (luciferase activity ratio, Fold Activation) ([3]; AUR 0.5-20 μM, AuTG 20-500 μM, AuTM 10-500 μM, HepG2, FIG. 2): outstanding luciferase activation compared with the other two kinds of gold compounds | action on the reporter (luciferase activity ratio) [4]: does not act on | action on the reporter (luciferase activity ratio) [5]: does not act on | transcription activity ratio (luciferase activity ratio) [6]: 30.8 | transcription activity ratio (luciferase activity ratio) [7]: 53.3 | action on the reporter (luciferase activity ratio) [8]: does not act on | action on the reporter (luciferase activity ratio) [9]: does not act on

Structure (SMILES): O=S(=O)([O-])[O-].[Cd+2] [cadmium sulfate]
luciferase activity in multiples of untreated control (Fold Activation) [3, 10]: 27.3

Structure (SMILES): [Cl][Co][Cl] [cobalt chloride]
luciferase activity in multiples of untreated control (Fold Activation) [3, 10]: 6.9

Structure (SMILES): [Cl][Hg][Cl] [mercury chloride]
luciferase activity in multiples of untreated control (Fold Activation) [3, 10]: 10

Structure (SMILES): [Cl][Au-]([Cl])([Cl])[Cl].[Na+] [sodium tetrachloroaurate(III)]
luciferase activity in multiples of untreated control (Fold Activation) [3, 10]: 4.3

Structure (SMILES): CC(C)(C)c1cc(O)c(C(C)(C)C)cc1O [tBHQ, 2,5-di-tert-butylhydroquinone]
activity ratio (luciferase activity ratio, control taken as 1) ([1]; 60 μM): 6.0±3.8

Structure (SMILES): O=C(O)CC(S)C(=O)O (centres unmarked) [thiomalate]
activity ratio (luciferase activity ratio, control taken as 1) ([1]; 100 μM): 2.1±0.6
